# Reference: article PMC8729770, “In Vitro Evaluation of Antimicrobial Peptides from the Black Soldier Fly (Hermetia Illucens) against a Selection of Human Pathogens” (Microbiology Spectrum, 2022)
# Where two headings read alike, the source gives them in different places. Ends that are not written are not given here.
# Legend:
# [1] = test system: S. aureus ATCC 6538; type: cell-based, Staphylococcus aureus; details: determined visually, 16 h
# Experimental: To detect antimicrobial activity of the BSF AMPs, the peptide library underwent screening against a panel of microorganisms, consisting of S. aureus ATCC 6538, E. coli ATCC 8739, P. aeruginosa ATCC 9027, C. albicans B59630, and A. fumigatus B42928. Serial dilutions of the peptides were prepared from the DMSO stock solutions in sterile demineralized water in 96-well plates using an automated liquid-handling workstation (Beckman Coulter Biomek 3000) in end volumes of 10 μL. The final in-plate concentration of DMSO was <1%. Peptide concentrations ranged from 64 μM to 0.25 μM for the first evaluation, and from 32 μM to 0.016 μM for the independent repeat. As references, doxycycline (Sigma-Aldrich; S. aureus, E. coli, P. aeruginosa), flucytosine (Sigma-Aldrich; C. albicans), and econazole (Sigma-Aldrich; A. fumigatus) were used. Suspensions of a starting inoculum of 5 × 10^3 CFU/mL (E. coli, S. aureus, C. albicans, A. fumigatus) and 5 × 10^4 CFU/mL (P. aeruginosa) were prepared in MHB (bacterial species) or RPMI medium (fungal species) and 190 μL was added to the 96-well plates. Plates were incubated for 16 h (E. coli, S. aureus, P. aeruginosa), 24 h (C. albicans), or 48 h (A. fumigatus) at 37°C. After incubation, read-out of the antimicrobial activity was performed using a resazurin assay. Then, 20 μL of a 0.01% (wt/vol) resazurin (Sigma-Aldrich) solution was added to each well and plates were incubated for 15 min (S. aureus), 30 min (E. coli), 45 min (P. aeruginosa), 4 h (C. albicans), or 17 h (A. fumigatus) to allow resazurin reduction to take place. Fluorescence was read using a microplate reader (Telix) at λexcitation = 550 nm and λemission = 590. […] MIC values were determined visually. Medium in the wells with no visual growth was plated on MHA to detect the MBC, defined as ≥3 log reduction compared with the growth control.
# [2] = test system: P. aeruginosa ATCC 9027; experiment: Time-to-kill analysis; type: cell-based, Pseudomonas aeruginosa
# Experimental: To investigate the bactericidal kinetics of the selected AMPs, a time-to-kill analysis was performed as described previously by Mascio et al. ([78]). Briefly, peptide serial dilutions were prepared in 96-well plates (10 μL) and mixed with 190 μL of a P. aeruginosa ATCC 9027 culture of an optical density measured at a wavelength of 600 nm (OD600) of 0.1. Plates were incubated at 37°C and at selected time points (0 h, 0.5 h, 1 h, 2 h, 4 h, and 5 h), aliquots were removed and serially diluted in PBS. The dilutions were plated on TSA and incubated overnight at 37°C. Afterwards, bacterial viability was assessed by performing a standard plate count. Bactericidal activity was defined as a ≥3-log reduction compared with the untreated bacterial control. To avoid carry-over effect of the peptides, the undiluted sample was not plated, leading to a quantification limit of 10^3 CFU/mL ([78]). Bacterial counts were calculated for each AMP concentration at each time point using the average plate count. Afterwards, log10 reductions of the bacterial counts were calculated using the following formula: log10 reduction = log10 (viable microorganisms without AMP treatment/viable microorganisms with AMP treatment). Next, the average log10 reductions and the standard deviations of five independent experiments were calculated and visualized using GraphPad Prism 8.
# [3] = test system: P. aeruginosa ATCC 9027; experiment: Inner membrane permeabilization, propidium iodide uptake assay; type: cell-based, Pseudomonas aeruginosa; details: 32 μM versus polymyxin B 16 μM
# Experimental: To investigate the IM damage induced by the selected AMPs, a PI (Sigma-Aldrich) uptake assay was performed, adapted from […] et al. ([80]). P. aeruginosa ATCC 9027 was grown until the mid-log phase in MHB. The bacteria were centrifuged (3,000 × g, 15 min) and resuspended in 5 mM HEPES (Sigma-Aldrich) buffer (pH 7.4) to an OD600 of 0.5. […] Fluorescence was measured every 5 min during 1 h using a microplate reader (Promega) at λexcitation = 530 nm and λemission = 620. Data were normalized based on the fluorescent signal in the presence of 50 μL HEPES buffer and 150 μL PI bacterial suspension. The assay was carried out in triplicate.
# [4] = test system: P. aeruginosa ATCC 9027; experiment: Cytoplasmic membrane depolarization assay, diSC3(5); type: cell-based, Pseudomonas aeruginosa; details: 32-0.25 μM
# Experimental: To study the effects of the peptides on the membrane potential, 3,3′-dipropylthiadicarbocyanine iodide (diSC3(5); TCI) was used as described by Kwon et al. ([82]). P. aeruginosa ATCC 9027 was grown until the mid-log phase in MHB. Afterwards, the cells were centrifuged (3,000 × g, 15 min), washed and resuspended in 5 mM HEPES buffer (pH 7.4) supplemented with 20 mM glucose and 100 mM KCl to an OD600 of 0.2. […] The fluorescent signal was measured at λexcitation = 620 nm and λemission = 670 with a microplate reader (Promega) every 5 min during 1 h. Furthermore, 0.1% Triton-X was used as a positive control. Data were normalized based on the fluorescent signal in the presence of 50 μL supplemented HEPES buffer and 150 μL diSC3(5)-bacterial suspension. The assay was carried out in triplicate.
# [5] = test system: P. aeruginosa ATCC 9027; details: ATCC 9027, 16 h
# [6] = test system: P. aeruginosa ATCC 15692 (PAO1); details: ATCC 15692, 16 h
# [7] = test system: P. aeruginosa ATCC 15442; details: ATCC 15442, 16 h
# [8] = test system: B. cenocepacia LMG 16656; details: for IC50: read-out: IC50 B. cenocepacia LMG 16656, starting at 32 μM, 10^5 CFU/mL, 48 h, 37°C, resazurin; for MIC B. cenocepacia LMG 16656: visual
# [9] = test system: M. tuberculosis ATCC 25177 (H37Ra); details: for IC50: read-out: IC50 M. tuberculosis ATCC 25177 (H37Ra), starting at 32 μM, 5×10^5 CFU/mL, 7 days, 37°C, resazurin; for MIC M. tuberculosis ATCC 25177 (H37Ra): visual
substance,measurement,setting,value
RWYKKIFKPVEKAVQRVRDGTLQALGVAQQAANVYATAQGAQQQRHA-NH2 [Hill-Cec10],MIC S. aureus ATCC 6538,"[1]; repeat 1, 64-0.25 μM",> 64.00 µM
same,MIC S. aureus ATCC 6538,"[1]; repeat 2, 32-0.016 μM",> 32.00 µM
same,log10 reduction of P. aeruginosa,"[2]; 8 μM (8 × MIC Hill-Cec1, 4 × MIC Hill-Cec10), after 5 h, mean ± SD of five experiments",2.44 ± 0.46 log10
same,log10 reduction of P. aeruginosa,"[2]; 16 μM (8 × MIC), after 5 h, mean ± SD of five experiments",4.60 ± 0.94 log10
same,log10 reduction of P. aeruginosa,"[2]; 16 μM (8 × MIC), always (all experiments)",≥ 3 log10
same,concentration needed to maintain bactericidal activity,"[2]; time-to-kill, ≥3-log10 reduction vs growth control",≥ 16 µM
same,PI uptake (inner membrane permeabilization),[3],exceeds that of a high dose of polymyxin B
same,cytoplasmic membrane depolarization (diSC3(5) fluorescence),[4],cause cytoplasmic membrane depolarization
same,IC50,[5],0.75 µM
same,MBC P. aeruginosa ATCC 15692 (PAO1),[6],16 µM
same,MIC P. aeruginosa ATCC 15442,[7],4 µM
same,IC50,[8]; repeat 1,> 32 µM
same,IC50,[8]; repeat 2,> 32 µM
same,MIC B. cenocepacia LMG 16656,[8]; repeat 1,>32 µM
same,MIC B. cenocepacia LMG 16656,[8]; repeat 2,>32 µM
same,IC50,[9]; repeat 1,> 32 µM
same,IC50,[9]; repeat 2,> 32 µM
same,MIC M. tuberculosis ATCC 25177 (H37Ra),[9]; repeat 1,>32 µM
same,MIC M. tuberculosis ATCC 25177 (H37Ra),[9]; repeat 2,>32 µM
